Results from US8916702B2 (priority 2012, dated 2014).

Each compound was assayed on HCV pseudoparticles (genotype 1a HCV E1 and E2 envelope, H77C isolate) (assay: microbe, parasite or virus in culture). Settings: Hepatitis C virus, Huh-7, 48 h, HCV pseudoparticles (genotype 1a, H77C) in Huh7 cells; average of duplicate; luciferase 2 days after infection.
Assay type: cell-based

SMILES	EC50
Cc1ccc(NC(=O)C(=O)N2CCCC(CNC(=O)c3ccc(Nc4nc(NC5(c6ccc(Cl)cc6)CC5)nc(OCC(F)(F)F)n4)cc3)C2)cc1 (stereo not drawn) [Compound 3481]	0.065 nM
Cc1cc(NC(=O)C(=O)N2CCCC(CNC(=O)c3ccc(Nc4nc(NC5(c6ccc(Cl)cc6)CC5)nc(OCC(F)(F)F)n4)cc3)C2)no1 (stereo not drawn) [Compound 3486]	0.32 nM
O=C(Nc1cccc(F)c1)C(=O)N[C@H](CCNC(=O)c1ccc(Nc2nc(NC3(c4ccc(Cl)cc4)CC3)nc(OCC(F)(F)F)n2)cc1)C(=O)O [Compound 3492, (R)-4-(4-((4-((1-(4-chlorophenyl)cyclopropyl)amino)-6-(2,2,2-trifluoroethoxy)-1,3,5-triazin-2-yl)amino)benzamido)-2-(2-((3-fluorophenyl)amino)-2-oxoacetamido)butanoic acid]	0.33 nM
O=C(Nc1ccc(F)cc1)C(=O)N(CCO)CCCNC(=O)c1ccc(Nc2nc(NC3(c4ccc(Cl)cc4)CC3)nc(OCC(F)(F)F)n2)cc1 [Compound 3499]	0.46 nM
Cc1ccc(NC(=O)C(=O)N(CCO)CCCNC(=O)c2ccc(Nc3nc(NC4(c5ccc(Cl)cc5)CC4)nc(OCC(F)(F)F)n3)cc2)cc1O [Compound 3506]	0.51 nM
C=Cc1ccc(NC(=O)C(=O)NCC(C)(C)CNC(=O)c2ccc(Nc3nc(NC4(c5ccc(Cl)cc5)CC4)nc(OCC(F)(F)F)n3)cc2F)cc1 [Compound 3515]	0.017 nM
Cc1ccc(NC(=O)C(=O)NCC(C)(C)CNC(=O)c2ccc(Nc3nc(NC4(c5ccc(Cl)cc5)CC4)nc(OCC(F)(F)F)n3)cc2-n2nnnc2C)cc1 [Compound 3518]	0.097 nM

Same assay, conditions: Hepatitis C virus, Huh-7, read-out: Activity (EC50 class), HCV pseudoparticles (genotype 1a, H77C) in Huh7 cells; EC50 expressed as class A/B

SMILES	EC50
O=C(Nc1cccc(F)c1)C(=O)N1CCCC(CNC(=O)c2ccc(Nc3nc(NC4(c5ccc(Cl)cc5)CC4)nc(OCC(F)(F)F)n3)cc2)C1 (stereo not drawn) [Compound 3479]	0.01 to 10 nM
NC(=O)C(=O)N1CCCC(CNC(=O)c2ccc(Nc3nc(NC4(c5ccc(Cl)cc5)CC4)nc(OCC(F)(F)F)n3)cc2)C1 (stereo not drawn) [Compound 3480]	0.01 to 10 nM
Cc1ccc(NC(=O)C(=O)N2CCCC(CNC(=O)c3ccc(Nc4nc(NC5(c6ccc(Cl)cc6)CC5)nc(OCC(F)(F)F)n4)cc3)C2)cc1 (stereo not drawn) [Compound 3481]	0.01 to 10 nM
O=C(Nc1ccc(F)cc1)C(=O)N1CCCC(CNC(=O)c2ccc(Nc3nc(NC4(c5ccc(Cl)cc5)CC4)nc(OCC(F)(F)F)n3)cc2)C1 (stereo not drawn) [Compound 3482]	0.01 to 10 nM
O=C(NCc1ccc(F)cc1)C(=O)N1CCCC(CNC(=O)c2ccc(Nc3nc(NC4(c5ccc(Cl)cc5)CC4)nc(OCC(F)(F)F)n3)cc2)C1 (stereo not drawn) [Compound 3483]	0.01 to 10 nM
O=C(Nc1ccc(F)cc1F)C(=O)N1CCCC(CNC(=O)c2ccc(Nc3nc(NC4(c5ccc(Cl)cc5)CC4)nc(OCC(F)(F)F)n3)cc2)C1 (stereo not drawn) [Compound 3484]	0.01 to 10 nM
O=C(Nc1cc(F)cc(F)c1)C(=O)N1CCCC(CNC(=O)c2ccc(Nc3nc(NC4(c5ccc(Cl)cc5)CC4)nc(OCC(F)(F)F)n3)cc2)C1 (stereo not drawn) [Compound 3485]	0.01 to 10 nM
Cc1cc(NC(=O)C(=O)N2CCCC(CNC(=O)c3ccc(Nc4nc(NC5(c6ccc(Cl)cc6)CC5)nc(OCC(F)(F)F)n4)cc3)C2)no1 (stereo not drawn) [Compound 3486]	0.01 to 10 nM
O=C(Nc1nccs1)C(=O)N1CCCC(CNC(=O)c2ccc(Nc3nc(NC4(c5ccc(Cl)cc5)CC4)nc(OCC(F)(F)F)n3)cc2)C1 (stereo not drawn) [Compound 3487]	0.01 to 10 nM
O=C(Nc1ccccc1)C(=O)N1CCCC(CNC(=O)c2ccc(Nc3nc(NC4(c5ccc(Cl)cc5)CC4)nc(OCC(F)(F)F)n3)cc2)C1 (stereo not drawn) [Compound 3488]	0.01 to 10 nM
O=C(NC1CCCCC1)C(=O)N1CCCC(CNC(=O)c2ccc(Nc3nc(NC4(c5ccc(Cl)cc5)CC4)nc(OCC(F)(F)F)n3)cc2)C1 (stereo not drawn) [Compound 3489]	0.01 to 10 nM
NC(=O)C(=O)N[C@H](CCNC(=O)c1ccc(Nc2nc(NC3(c4ccc(Cl)cc4)CC3)nc(OCC(F)(F)F)n2)cc1)C(=O)O [Compound 3491]	10 to 1000 nM
O=C(Nc1cccc(F)c1)C(=O)N[C@H](CCNC(=O)c1ccc(Nc2nc(NC3(c4ccc(Cl)cc4)CC3)nc(OCC(F)(F)F)n2)cc1)C(=O)O [Compound 3492, (R)-4-(4-((4-((1-(4-chlorophenyl)cyclopropyl)amino)-6-(2,2,2-trifluoroethoxy)-1,3,5-triazin-2-yl)amino)benzamido)-2-(2-((3-fluorophenyl)amino)-2-oxoacetamido)butanoic acid]	0.01 to 10 nM
O=C(Nc1cc(F)cc(F)c1)C(=O)N[C@H](CCNC(=O)c1ccc(Nc2nc(NC3(c4ccc(Cl)cc4)CC3)nc(OCC(F)(F)F)n2)cc1)C(=O)O [Compound 3493]	0.01 to 10 nM
O=C(Nc1ccccc1)C(=O)N[C@H](CCNC(=O)c1ccc(Nc2nc(NC3(c4ccc(Cl)cc4)CC3)nc(OCC(F)(F)F)n2)cc1)C(=O)O [Compound 3494]	0.01 to 10 nM
O=C(N[C@H](CCNC(=O)c1ccc(Nc2nc(NC3(c4ccc(Cl)cc4)CC3)nc(OCC(F)(F)F)n2)cc1)C(=O)O)C(=O)N1CCc2ccccc2C1 [Compound 3495]	0.01 to 10 nM
O=C(Nc1nccs1)C(=O)N[C@H](CCNC(=O)c1ccc(Nc2nc(NC3(c4ccc(Cl)cc4)CC3)nc(OCC(F)(F)F)n2)cc1)C(=O)O [Compound 3496]	10 to 1000 nM
O=C(Nc1cccc(F)c1)C(=O)N(CCO)CCCNC(=O)c1ccc(Nc2nc(NC3(c4ccc(Cl)cc4)CC3)nc(OCC(F)(F)F)n2)cc1 [Compound 3497]	0.01 to 10 nM
NC(=O)C(=O)N(CCO)CCCNC(=O)c1ccc(Nc2nc(NC3(c4ccc(Cl)cc4)CC3)nc(OCC(F)(F)F)n2)cc1 [Compound 3498]	0.01 to 10 nM
O=C(Nc1ccc(F)cc1)C(=O)N(CCO)CCCNC(=O)c1ccc(Nc2nc(NC3(c4ccc(Cl)cc4)CC3)nc(OCC(F)(F)F)n2)cc1 [Compound 3499]	0.01 to 10 nM
Cc1cc(NC(=O)C(=O)N(CCO)CCCNC(=O)c2ccc(Nc3nc(NC4(c5ccc(Cl)cc5)CC4)nc(OCC(F)(F)F)n3)cc2)no1 [Compound 3500]	0.01 to 10 nM
Cc1ccc(NC(=O)C(=O)N(CCO)CCCNC(=O)c2ccc(Nc3nc(NC4(c5ccc(Cl)cc5)CC4)nc(OCC(F)(F)F)n3)cc2)cc1 [Compound 3501]	0.01 to 10 nM
O=C(NCc1ccc(F)cc1)C(=O)N(CCO)CCCNC(=O)c1ccc(Nc2nc(NC3(c4ccc(Cl)cc4)CC3)nc(OCC(F)(F)F)n2)cc1 [Compound 3502]	0.01 to 10 nM
O=C(Nc1ccc(F)cc1F)C(=O)N(CCO)CCCNC(=O)c1ccc(Nc2nc(NC3(c4ccc(Cl)cc4)CC3)nc(OCC(F)(F)F)n2)cc1 [Compound 3503]	0.01 to 10 nM
O=C(N[C@H](CCNC(=O)c1ccc(Nc2nc(NC3(c4ccc(Cl)cc4)CC3)nc(OCC(F)(F)F)n2)cc1)C(=O)O)C(=O)N1CCCCC1 [Compound 3504]	0.01 to 10 nM

SMILES	EC50
CC(C)CNC(=O)C(=O)N(CCO)CCCNC(=O)c1ccc(Nc2nc(NC3(c4ccc(Cl)cc4)CC3)nc(OCC(F)(F)F)n2)cc1 [Compound 3505]	0.01 to 10 nM
Cc1ccc(NC(=O)C(=O)N(CCO)CCCNC(=O)c2ccc(Nc3nc(NC4(c5ccc(Cl)cc5)CC4)nc(OCC(F)(F)F)n3)cc2)cc1O [Compound 3506]	0.01 to 10 nM
O=C(Nc1cc(F)cc(F)c1)C(=O)N(CCO)CCCNC(=O)c1ccc(Nc2nc(NC3(c4ccc(Cl)cc4)CC3)nc(OCC(F)(F)F)n2)cc1 [Compound 3507]	0.01 to 10 nM
O=C(Nc1ccccc1)C(=O)N(CCO)CCCNC(=O)c1ccc(Nc2nc(NC3(c4ccc(Cl)cc4)CC3)nc(OCC(F)(F)F)n2)cc1 [Compound 3508]	0.01 to 10 nM
O=C(NCCCN(CCO)C(=O)C(=O)N1CCCCC1)c1ccc(Nc2nc(NC3(c4ccc(Cl)cc4)CC3)nc(OCC(F)(F)F)n2)cc1 [Compound 3509]	0.01 to 10 nM
O=C(NC1CCCCC1)C(=O)N(CCO)CCCNC(=O)c1ccc(Nc2nc(NC3(c4ccc(Cl)cc4)CC3)nc(OCC(F)(F)F)n2)cc1 [Compound 3510]	0.01 to 10 nM
CC(C)(CNC(=O)C(N)=O)CNC(=O)c1ccc(Nc2nc(NC3(c4ccc(Cl)cc4)CC3)nc(OCC(F)(F)F)n2)cc1-c1ccccc1 [Compound 3511]	0.01 to 10 nM
CC(C)(CNC(=O)C(=O)Nc1ccc(Cl)cc1)CNC(=O)c1ccc(Nc2nc(NC3(c4ccc(Cl)cc4)CC3)nc(OCC(F)(F)F)n2)cc1F [Compound 3512]	0.01 to 10 nM
CC(C)(CNC(=O)C(=O)Nc1ccc(Cl)c(F)c1)CNC(=O)c1ccc(Nc2nc(NC3(c4ccc(Cl)cc4)CC3)nc(OCC(F)(F)F)n2)cc1F [Compound 3513]	0.01 to 10 nM
CC(C)(CNC(=O)C(=O)NCc1ccc(F)cc1)CNC(=O)c1ccc(Nc2nc(NC3(c4ccc(Cl)cc4)CC3)nc(OCC(F)(F)F)n2)cc1F [Compound 3514]	0.01 to 10 nM
C=Cc1ccc(NC(=O)C(=O)NCC(C)(C)CNC(=O)c2ccc(Nc3nc(NC4(c5ccc(Cl)cc5)CC4)nc(OCC(F)(F)F)n3)cc2F)cc1 [Compound 3515]	0.01 to 10 nM
CC(C)(CNC(=O)C(=O)Nc1ccc(C#N)cc1)CNC(=O)c1ccc(Nc2nc(NC3(c4ccc(Cl)cc4)CC3)nc(OCC(F)(F)F)n2)cc1F [Compound 3516]	0.01 to 10 nM
Cc1nnnn1-c1cc(Nc2nc(NC3(c4ccc(Cl)cc4)CC3)nc(OCC(F)(F)F)n2)ccc1C(=O)NCC(C)(C)CNC(=O)C(=O)Nc1cccc(F)c1 [Compound 3517]	0.01 to 10 nM
Cc1ccc(NC(=O)C(=O)NCC(C)(C)CNC(=O)c2ccc(Nc3nc(NC4(c5ccc(Cl)cc5)CC4)nc(OCC(F)(F)F)n3)cc2-n2nnnc2C)cc1 [Compound 3518]	0.01 to 10 nM
Cc1nnnn1-c1cc(Nc2nc(NC3(c4ccc(Cl)cc4)CC3)nc(OCC(F)(F)F)n2)ccc1C(=O)NCC(C)(C)CNC(=O)C(N)=O [Compound 3519]	0.01 to 10 nM
O=C(NCCC(NC(=O)c1ccc(Nc2nc(NC3(c4ccc(Cl)cc4)CC3)nc(OCC(F)(F)F)n2)cc1)C(=O)O)C(=O)Nc1ccc(Cn2cncn2)cc1 (stereo not drawn) [Compound 3520]	0.01 to 10 nM
O=C(NCCC(NC(=O)c1ccc(Nc2nc(NC3(c4ccc(Cl)cc4)CC3)nc(OCC(F)(F)F)n2)cc1)C(=O)O)C(=O)Nc1ccc(-n2ccnc2)cc1 (stereo not drawn) [Compound 3521]	0.01 to 10 nM
O=C(NCCC(NC(=O)c1ccc(Nc2nc(NC3(c4ccc(Cl)cc4)CC3)nc(OCC(F)(F)F)n2)cc1)C(=O)O)C(=O)Nc1ccc(Oc2ccc(F)cc2)cc1 (stereo not drawn) [Compound 3522]	10 to 1000 nM
COc1cc(OC)nc(-c2ccc(NC(=O)C(=O)NCCC(NC(=O)c3ccc(Nc4nc(NC5(c6ccc(Cl)cc6)CC5)nc(OCC(F)(F)F)n4)cc3)C(=O)O)cc2)n1 (stereo not drawn) [Compound 3523]	0.01 to 10 nM
CC(=O)N1CCN(c2ccc(NC(=O)C(=O)NCCC(NC(=O)c3ccc(Nc4nc(NC5(c6ccc(Cl)cc6)CC5)nc(OCC(F)(F)F)n4)cc3)C(=O)O)cc2)CC1 (stereo not drawn) [Compound 3524]	0.01 to 10 nM
Cc1ccccc1-c1ccc(NC(=O)C(=O)NCCC(NC(=O)c2ccc(Nc3nc(NC4(c5ccc(Cl)cc5)CC4)nc(OCC(F)(F)F)n3)cc2)C(=O)O)cc1 (stereo not drawn) [Compound 3525]	10 to 1000 nM
Cc1ccc(-c2ccc(NC(=O)C(=O)NCCC(NC(=O)c3ccc(Nc4nc(NC5(c6ccc(Cl)cc6)CC5)nc(OCC(F)(F)F)n4)cc3)C(=O)O)cc2)cc1 (stereo not drawn) [Compound 3526]	0.01 to 10 nM
Cc1nc(-c2ccc(NC(=O)C(=O)NCCC(NC(=O)c3ccc(Nc4nc(NC5(c6ccc(Cl)cc6)CC5)nc(OCC(F)(F)F)n4)cc3)C(=O)O)cc2)cs1 (stereo not drawn) [Compound 3528]	0.01 to 10 nM
CCOCCOc1ccc(NC(=O)C(=O)NCCC(NC(=O)c2ccc(Nc3nc(NC4(c5ccc(Cl)cc5)CC4)nc(OCC(F)(F)F)n3)cc2)C(=O)O)cc1 (stereo not drawn) [Compound 3530]	0.01 to 10 nM
O=C(NCCC(NC(=O)c1ccc(Nc2nc(NC3(c4ccc(Cl)cc4)CC3)nc(OCC(F)(F)F)n2)cc1)C(=O)O)C(=O)Nc1ccc(-c2cc[nH]n2)cc1 (stereo not drawn) [Compound 3531]	0.01 to 10 nM
